Holding throughout (assay type): cell-based
The test system of test [1] is LX-2 cells. Description: Liver fibrosis-related protein expression. Conditions: 40 μM, 24 hours. The protocol: Specifically, the evaluation was performed by using LX-2 cells, which are hepatic stellate cells. LX-2 cells treated with TGF-P1 at a concentration of 5 ng/ml were treated with JAKI at concentrations of 0 μM, 20 μM, and 40 μM, and then cultured under the same conditions for 24 hours. Thereafter, the protein expression levels of TGF-131, collagen type-1, MMP-2, TIMP1, and GAPDH, and the protein expression ratios of TGF-131, collagen type-1, MMP-2, and TIMP1 compared to GAPDH were analyzed.
Specifically, the evaluation was performed by using LX-2 cells, which are hepatic stellate cells. The LX-2 cells treated with 5 ng/ml TGF-P1 were treated with elafibranor at concentrations of 0 μM, 20 μM, 40 μM, and 80 μM in the control group of the present invention, and the cultured for 24 hours under the same conditions. Then, the protein expression ratios of TGF-131, collagen type-1, MMP-2, and TIMP1 compared to GAPDH were analyzed.

In test [2] the test system is 3T3-L1 cells. Description: TNF-a induced IL-6 production in preadipocytes. The note with it: 0.16 to 2.5 μg/ml. As for the experimental part:
To confirm the non-alcoholic steatohepatitis inhibitory effect of the Centipeda minima extract, an experiment was performed with INF-a induced IL-6 production in preadipocytes according to an inflammatory disease treatment agent.
Specifically, the evaluation was performed by using 3T3-L1 cells, which are preadipocytes, and after the 3T3-L1 cells were treated with each of JAKI and elafibranor at concentrations of 0 μg/ml, 0.16 μg/ml, 0.31 μg/ml, 0.63 μg/ml, 1.25 μg/ml, and 2.5 μg/ml and then cultured for 6 hours under the same conditions, the changes of the IL-6 production were analyzed.

Test [3] has as its system 3T3-L1 cells. The test is described as follows: Adipocyte differentiation inhibitory effect. The note with it: tested 0.16, 0.31, 0.63, 1.25 μg/ml. The protocol:
To confirm the effect of the Centipeda minima extract for inhibiting non-alcoholic steatohepatitis, an experiment was performed on preadipocytes according to an inflammatory disease treatment agent.
Specifically, the evaluation was performed by using 3T3-L1 cells, which are preadipocytes, and after the 3T3-L1 cells were treated with each of JAKI and elafibranor at concentrations of 0 μg/ml, 0.16 μg/ml, 0.31 μg/ml, 0.63 μg/ml, and 1.25 μg/ml and then cultured for 6 hours under the same conditions, the changes of the 3T3-L1 cells were analyzed.

Test [4] concerns 3T3-L1 cells. Description: TNF-a induced MCP-1 production in preadipocytes. The note with it: 0.16 to 2.5 μg/ml. As for the experimental part: To confirm the non-alcoholic steatohepatitis inhibitory effect of the Centipeda minima extract, an experiment was performed with TNF-a induced MCP-1 production in preadipocytes according to an inflammatory disease treatment agent.
Specifically, the evaluation was performed by using 3T3-L1 cells, which are preadipocytes, and after the 3T3-L1 cells were treated with each of JAKI and elafibranor at concentrations of 0 μg/ml, 0.16 μg/ml, 0.31 μg/ml, 0.63 μg/ml, 1.25 μg/ml, and 2.5 μg/ml and then cultured for 6 hours under the same conditions, the changes of the MCP-1 production were analyzed.

With `CSc1ccc(C(=O)/C=C/c2cc(C)c(OC(C)(C)C(=O)O)c(C)c2)cc1` [elafibranor], in test [1], the “expression ratio of MMP-2 protein compared to GAPDH” value was “decreased”, the “expression ratio of TGF-β1 protein compared to GAPDH” value is “decreased”, the “expression ratio of TIMP1 protein compared to GAPDH” value is reported as “decreased” and the “expression ratio of collagen type-1 protein compared to GAPDH” value is given as “decreased”. Moreover, the “change in the IL-6 production” value in test [2] is given as “no change”. Also, the “concentration from which adipocyte differentiation is inhibited” value in test [3] is ≥ 0.63 µg/mL. In addition, the “change in the MCP-1 production” value in test [4] is “no change”.

(Values after patent US20240016779A1, “COMPOSITION FOR PREVENTING AND TREATING INFLAMMATORY DISEASE AND AUTOIMMUNE DISEASES AND NON-ALCOHOLIC FATTY LIVER DISEASE, COMPRISING EXTRACT DERIVED FROM CENTIPEDA MINIMA” (D-NATURE CO., LTD., priority 2020, published 2024).)
